Where a SMILES comes first, the peptide text is derived from it. Bridges are numbered along the chain shown (N, C = ends). [ ]: non-standard residue; d: D form. Asu = N[C@@H](CCCCCC(=O)O)C(=O)O
Test system: Male rats
Assay: Assay method for serum calcium reducing activity (potency against Research Standard B)
Type: in vivo, rat
Details: intravenous injection 0.2 ml, serum calcium 1 hour after injection, versus Research Standard B
Procedure: The assay method for serum calcium reducing activity, the carrier and developing system for thin layer chromatography and conditions for amino acid analysis are as follows:
Sample is diluted adequately with 0.1 N sodium acetate - 0.1% albumin solution. Male rats are subjected individually to intravenous injection with 0.2 ml. of the respective diluted solutions. After 1 hour, all the rats are killed to obtain their respective blood, and serum calcium value of each blood sample is determined by atomic absorption spectrophotomery. On the other hand, Research Standard B, which is an extract obtained from the thyroid gland of the hog, is diluted so as to give dilutions of 2.5, 5, 10 and 20 MRC mU/0.2 ml. respectively. Male rats are subjected to intravenous injection with 0.2 ml. of the respective diluted solutions. Following the same procedure as above, the serum calcium value of the rats is determined one hour after injection. From the potency of the corresponding Research Standard, the potency of the calcitonin in the sample is determined.

Structure (SMILES): CC(C)C[C@H](NC(=O)[C@H](CCCCN)NC(=O)CNC(=O)[C@H](CC(C)C)NC(=O)[C@@H](NC(=O)[C@@H]1CCCCCC(=O)N[C@@H](CO)C(=O)N[C@@H](CC(N)=O)C(=O)N[C@@H](CC(C)C)C(=O)N[C@@H](CO)C(=O)N[C@@H]([C@@H](C)O)C(=O)N1)C(C)C)C(=O)N[C@@H](CO)C(=O)N[C@@H](CCC(N)=O)C(=O)N[C@@H](CCC(=O)O)C(=O)N[C@@H](CC(C)C)C(=O)N[C@@H](Cc1c[nH]cn1)C(=O)N[C@@H](CCCCN)C(=O)N[C@@H](CC(C)C)C(=O)N[C@@H](CCC(N)=O)C(=O)N[C@H](C(=O)N[C@@H](Cc1ccc(O)cc1)C(=O)N1CCC[C@H]1C(=O)N[C@@H](CCCNC(=N)N)C(=O)N[C@H](C(=O)N[C@@H](CC(=O)O)C(=O)N[C@H](C(=O)NCC(=O)N[C@@H](C)C(=O)NCC(=O)N[C@H](C(=O)N1CCC[C@H]1C(N)=O)[C@@H](C)O)C(C)C)[C@@H](C)O)[C@@H](C)O [Example 1] (SNLST[Asu]VLGKLSQELHKLQTYPRTDVGAGTP-NH2; lactam N-6)
- potency of the purified product (serum calcium reducing activity): 3450 MRC U/mg.

Reference: patent publication US4086221A, “Polypeptides and process for producing the same” (Toyo Jozo Kabushiki Kaisha, priority 1975, dated 1978)
